Values quoted from earlier work, collected in article PMC10423561, “Effects of the CYP3A inhibitors, voriconazole, itraconazole, and fluconazole on the pharmacokinetics of osimertinib in rats” (PeerJ, 2023).
Like-named read-outs stand apart in the source and are kept apart here.

Tests used:
[1] = design: method as in Fu et al., 2023; settings: ref Fu et al., 2023, cited from earlier work
CYP3A = CYP3A probe substrate; inhibitor not stated; ref Uchida, Tanaka & Namiki, 2014; cited from earlier work

| SMILES | increase in systemic exposure of almonertinib ([1]; with FCZ) [fold] | increase in systemic exposure of almonertinib ([1]; with VCZ) [fold] | increase in AUC0–360 of midazolam (CYP3A) [%] |
| --- | --- | --- | --- |
| C=CC(=O)Nc1cc(Nc2nccc(-c3cn(C4CC4)c4ccccc34)n2)c(OC)cc1N(C)CCN(C)C [almonertinib] | 3.4 | 2.7 |  |
| Cc1ncc2n1-c1ccc(Cl)cc1C(c1ccccc1F)=NC2 [midazolam] |  |  | 133 |
